Test results from PMC10970734, “Identification of an Intravenous Injectable NK1 Receptor Antagonist for Use in Traumatic Brain Injury” (International Journal of Molecular Sciences, 2024).

Legend:
Dopamine D1 = Dopamine D1 (Homo sapiens, UniProt P21728); assay: Cerep selectivity profiling, receptor antagonism; assay type: biochemical
Procedure: (§1) The pharmacological specificity of EUC-001 was assessed using the commercially available selectivity profiling services provided by Cerep (Celle l’Evescault, France). Initially, the activity of EUC-001, at a fixed concentration of 10 μM, was evaluated in a range of assays to assess pharmacological selectivity relative to other cell-surface receptors, ion channels and transport proteins. Where any significant binding was detected, further assays were performed to quantify potential non-selective activity. […] In terms of this non-specific activity, the IC50s are approximately 3.6 log units greater than that required for NK1R antagonism.
(§2) The pharmacological specificity of EUC-001 was assessed using the commercially available selectivity profiling services provided by Cerep (Celle l’Evescault, France). For initial screens, the binding of EUC-001 (synthesized by Hoffmann-La Roche, Basel, Switzerland) at a fixed concentration of 10 μM was evaluated in a range of assays to assess pharmacological selectivity relative to other cell-surface receptors, ion channels and transport proteins.
(§3) For agonist activity, results are expressed as a percentage of the control agonist response induced by the selective NK1R agonist [Sar^9, Met(O2)^11]-substance P (100 nM) for a range of concentrations of EUC-001. Antagonist activity is expressed as a percentage change in the response induced by 3 nM [Sar^9, Met(O2)^11]-SP (R&D systems) across a range of concentrations of EUC-001. The EC50 values (concentration producing a half-maximal specific response) and IC50 values (concentration causing a half-maximal inhibition of the control specific agonist response) were determined by non-linear regression analysis of the concentration–response curves generated with mean replicate values using Hill equation curve fitting (Y = D + [(A − D)/(1 + (C/C50)nH)], where Y = specific response, D = minimum specific response, A = maximum specific response, C = compound concentration, and C50 = EC50 or IC50, and nH = slope factor). This analysis was performed using custom software developed at Cerep and validated by comparison with data generated by the commercial software SigmaPlot® 4.0 for Windows® (SPSS Inc., Chicago, IL, USA). For the antagonists, the apparent dissociation constants (KB) were calculated using the modified Cheng Prusoff equation (KB = IC50/(1 + (A/EC50A)), where A = concentration of reference agonist in the assay, and EC50A = EC50 value of the reference agonist).

[1] = target: T1, Muscarinic cholinergic M2 (Homo sapiens, UniProt P08172); assay: Cerep selectivity profiling, receptor antagonism; assay type: biochemical
T1 sequence (P08172 1-466): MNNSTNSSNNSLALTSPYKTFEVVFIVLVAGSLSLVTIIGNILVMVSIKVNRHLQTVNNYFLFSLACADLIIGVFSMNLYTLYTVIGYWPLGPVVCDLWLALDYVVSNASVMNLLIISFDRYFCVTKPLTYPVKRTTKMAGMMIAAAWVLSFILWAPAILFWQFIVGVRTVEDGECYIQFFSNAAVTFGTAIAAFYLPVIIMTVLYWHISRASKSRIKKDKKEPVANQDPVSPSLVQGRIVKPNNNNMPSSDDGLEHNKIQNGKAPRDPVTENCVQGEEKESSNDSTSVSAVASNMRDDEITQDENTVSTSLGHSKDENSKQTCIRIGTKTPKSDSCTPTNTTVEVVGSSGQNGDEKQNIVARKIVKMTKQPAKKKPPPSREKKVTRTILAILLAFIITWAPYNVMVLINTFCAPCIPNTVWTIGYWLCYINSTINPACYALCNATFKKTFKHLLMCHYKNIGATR
Procedure: as §1, §2, §3

[2] = target: Muscarinic cholinergic M3 (Homo sapiens, UniProt P20309); assay: Cerep selectivity profiling, receptor antagonism; assay type: biochemical
Procedure: as §1, §2, §3

Serotonin 5-HT1B = Serotonin 5-HT1B (Homo sapiens, UniProt P28222); assay: Cerep selectivity profiling, receptor antagonism; assay type: biochemical; conditions: Serotonin 5-HT1B antagonism
Procedure: as §1, §2, §3

Serotonin 5-HT2A = Serotonin 5-HT2A (Homo sapiens, UniProt P28223); assay: Cerep selectivity profiling, receptor antagonism; assay type: biochemical; conditions: Serotonin 5-HT2A antagonism
Procedure: as §1, §2, §3

rodent model of TBI = assay: BBB permeability after TBI, Evan's blue extravasation; assay type: in vivo, Sprague Dawley rats; conditions: rat TBI
Description: Injury was induced in halothane-anesthetized (ProVet) male Sprague Dawley rats (400 ± 20 g) using acceleration-induced impact TBI [29, 93]. This model involves impacting a 10 mm diameter, 3 mm thick stainless steel disc fixed centrally to the exposed skull between the lambda and bregma with an accelerating impactor. The impactor was a 450 g brass weight dropped from a height of 2 m. […] All animals were fed and watered ad libitum before the induction of injury. During both surgery and the immediate recovery phase, rat rectal temperature was maintained using a thermostatically controlled heating pad. Immediately after injury, animals were manually ventilated until stable respiration was restored, usually in <5 min. After injury, all wounds were sutured. Blood pressure was monitored, both before and after injury, using a femoral arterial line.
The optimal dose of the NK1 receptor antagonist was determined from the level of BBB permeability using EB dye extravasation as the BBB marker [94, 95]. Briefly, EUC-001 was administered intravenously 30 min after TBI at doses ranging between 0.03 and 10 mg/kg in six steps (n = 3 per group). […] The supernatants were measured at 610 nm for absorbance of EB using a spectrophotometer (Cole-Parmer, Vernon Hills, IL, USA). Evans blue is expressed as mg/mg of the brain tissue against a standard curve.

Chain of Serotonin 5-HT2A (P28223 whole entry): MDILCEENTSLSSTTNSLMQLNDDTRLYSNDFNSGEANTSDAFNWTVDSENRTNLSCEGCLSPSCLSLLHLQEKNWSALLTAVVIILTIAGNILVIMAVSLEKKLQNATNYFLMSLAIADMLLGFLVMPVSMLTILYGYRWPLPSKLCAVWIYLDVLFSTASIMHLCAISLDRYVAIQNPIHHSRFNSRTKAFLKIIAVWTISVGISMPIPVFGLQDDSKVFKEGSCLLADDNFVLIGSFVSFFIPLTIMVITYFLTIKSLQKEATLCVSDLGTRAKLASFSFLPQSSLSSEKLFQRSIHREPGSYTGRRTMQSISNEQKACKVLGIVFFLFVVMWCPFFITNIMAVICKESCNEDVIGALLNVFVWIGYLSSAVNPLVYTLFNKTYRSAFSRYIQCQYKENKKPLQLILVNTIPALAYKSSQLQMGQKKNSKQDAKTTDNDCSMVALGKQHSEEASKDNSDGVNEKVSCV
Chain of Serotonin 5-HT1B (P28222 whole entry): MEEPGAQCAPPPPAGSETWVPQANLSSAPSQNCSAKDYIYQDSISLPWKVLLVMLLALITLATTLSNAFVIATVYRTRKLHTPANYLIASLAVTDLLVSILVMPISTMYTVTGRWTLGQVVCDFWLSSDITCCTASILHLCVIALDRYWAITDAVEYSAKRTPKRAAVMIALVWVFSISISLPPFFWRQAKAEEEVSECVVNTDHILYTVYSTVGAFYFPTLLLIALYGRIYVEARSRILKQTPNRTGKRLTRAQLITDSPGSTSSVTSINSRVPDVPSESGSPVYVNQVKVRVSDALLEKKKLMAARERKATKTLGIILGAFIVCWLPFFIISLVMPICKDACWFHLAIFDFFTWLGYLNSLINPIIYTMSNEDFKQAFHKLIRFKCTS
Chain of Muscarinic cholinergic M3 (P20309 whole entry): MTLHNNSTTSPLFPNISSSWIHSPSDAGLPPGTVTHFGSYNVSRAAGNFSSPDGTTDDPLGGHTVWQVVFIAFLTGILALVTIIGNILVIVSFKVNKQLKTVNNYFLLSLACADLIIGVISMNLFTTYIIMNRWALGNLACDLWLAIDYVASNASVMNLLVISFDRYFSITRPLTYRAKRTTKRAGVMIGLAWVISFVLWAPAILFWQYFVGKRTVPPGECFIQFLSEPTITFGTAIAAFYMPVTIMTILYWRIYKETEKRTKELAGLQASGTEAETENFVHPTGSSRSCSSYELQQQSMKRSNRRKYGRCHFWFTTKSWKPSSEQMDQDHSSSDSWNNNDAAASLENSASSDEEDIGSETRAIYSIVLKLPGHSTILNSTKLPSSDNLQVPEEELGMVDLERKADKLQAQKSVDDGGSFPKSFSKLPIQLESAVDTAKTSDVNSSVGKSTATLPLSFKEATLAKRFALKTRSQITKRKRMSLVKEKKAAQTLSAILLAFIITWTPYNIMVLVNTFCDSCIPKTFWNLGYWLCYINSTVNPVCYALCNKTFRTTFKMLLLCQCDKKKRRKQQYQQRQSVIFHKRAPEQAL
Chain of Dopamine D1 (P21728 whole entry): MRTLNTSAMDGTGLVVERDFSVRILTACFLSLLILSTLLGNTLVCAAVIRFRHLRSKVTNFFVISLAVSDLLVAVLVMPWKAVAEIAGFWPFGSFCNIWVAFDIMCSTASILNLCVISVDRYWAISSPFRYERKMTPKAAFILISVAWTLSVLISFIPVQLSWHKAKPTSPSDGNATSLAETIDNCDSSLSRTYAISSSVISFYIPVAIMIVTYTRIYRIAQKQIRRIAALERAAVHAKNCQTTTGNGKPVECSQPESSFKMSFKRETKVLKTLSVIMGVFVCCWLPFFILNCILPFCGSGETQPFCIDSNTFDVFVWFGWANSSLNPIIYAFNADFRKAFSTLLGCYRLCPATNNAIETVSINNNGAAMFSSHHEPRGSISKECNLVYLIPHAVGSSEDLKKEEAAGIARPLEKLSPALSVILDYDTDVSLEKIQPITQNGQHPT

SMILES: Cc1ccccc1-c1cc(N2CCN(C)CC2)ncc1C(=O)N(C)Cc1cc(C(F)(F)F)cc(C(F)(F)F)c1 [EUC-001, N-(3,5-Bis-trifluoromethyl-benzyl)-N-methyl-6-(4-methyl-piperazine-1-yl)-4-o-tolyl-nicotinamide]
- IC50 (Dopamine D1): 16 µM
- IC50 [1]: 30 µM
- IC50 [2]: 3.3 µM
- IC50 (Serotonin 5-HT1B): 6.1 µM
- IC50 (Serotonin 5-HT2A): 15 µM
- Evan's blue leakage relative to drug vehicle (rodent model of TBI; 10 mg/kg 30 min post-injury, tissues 5 h after injury): significant reduction
- IC50, decrease in Evan's blue extravasation (rodent model of TBI; bolus iv 30 min after injury, 0.03-10 mg/kg): 0.43 mg/kg
